From US4555522A, “Antithrombotic and/or antihypertensive compositions” (T & R Chemicals, Inc., priority 1983, dated 1985)
Like-named read-outs stand apart in the source and are kept apart here.

How the values were obtained:
[1] = test system: thrombotic disorders; assay: Treatment of thrombotic disorders in rats; format: in vivo, rat; settings: aqueous suspension, e.g. 0.5 to 2.5 millimolar
Description: (§1) Dimethyl sulphite and diethyl sulphite are successively prepared by esterifying 2 moles of each respective alkanol with 1 mole of thionyl chloride. The diethyl ester is a colourless liquid (b.p. 159°) with an aromatic odour, believed to have the following formula: [drawing 17] A composition based on this compound, e.g. an aqueous suspension having a concentration in the range from 0.5 to 2.5 millimolar, is effective in the treatment of thrombotic and hypertensive disorders in rats. It is theorized to be activated in vivo by virtue of its conversion to sulphite ions.

[2] = test system: platelet aggregation in platelet-rich plasma (PRP); assay: In vitro inhibition of platelet aggregation, method of Born; format: cell-based; settings: Oryctolagus cuniculus, read-out: IC50 of diethyl sulphite
Description: (§2) In order to evaluate the effectiveness of diethyl sulphite as an anti-platelet aggregatory agent the following experiments are carried out.
(A) In vitro Platelet-rich plasma (PRP) is prepared from a rabbit and the IC50 value is determined according to the method of Born, "Nature", 194, 927-929 (1962). The IC50 is the estimated concentration of the agent necessary to inhibit 50 percent of the platelet aggregation. The data tabulated below is obtained.

[3] = test system: platelet aggregation; assay: Ex vivo inhibition of platelet aggregation after injection into a rabbit; settings: 219 mg injected, 3.06 kg rabbit, about 10 millimolar in blood, 10 minutes
Description: as §2
(B) Ex vivo A rabbit weighing 3.06 kg is injected with 219 mg of diethyl sulphite to give a concentration of about 10 millimolar diethyl sulphite in the blood. After 10 minutes, a blood sample is withdrawn and the percent inhibition of platelet aggregation, as compared to a blood sample taken before injection, is determined.

[4] = test system: hypertensive disorders; assay: Treatment of hypertensive disorders in rats; format: in vivo, rat; settings: aqueous suspension, e.g. 0.5 to 2.5 millimolar
Description: as §1

For `CCOS(=O)OCC` [diethyl sulphite], the “effectiveness in the treatment of thrombotic disorders” value [1] was “effective”, the IC50 ([2]; stimulus: U-46619, rabbit PRP) was 11 mM and the IC50 ([2]; stimulus: adenosine diphosphate (ADP), rabbit PRP) was 35 mM. For the same molecule, the IC50 ([2]; stimulus: arachidonic acid, rabbit PRP) was 6.25 mM, the “percent inhibition of platelet aggregation” value (“percent inhibition” below) ([3]; stimulus: ADP) was 29% and the “percent inhibition” value ([3]; stimulus: U-46619) was 12%. For the same molecule, the “percent inhibition” value ([3]; stimulus: arachidonic acid) was 0% and the “effectiveness in the treatment of hypertensive disorders” value [4] was “effective”.
